Data reported in PMC6923382, “Small molecules that inhibit TNF signalling by stabilising an asymmetric form of the trimer” (Nature Communications, 2019).
Several values for one entry are separate records, joined by “and”; a condition that tells them apart may be missing. Equal entries are not always repeated. Where two headings read alike, the source gives them in different places.

Assays:
[1] = tested on: Balb/c mice (CAIA model); assay: Collagen antibody induced arthritis (CAIA) model; format: in vivo, mouse; design: key to Daily arthritis score: 0 = no arthritis, 3 = wrist/ankle, pad and digits affected; settings: Ab501 i.v. then s.c.; for Daily arthritis score: individual mice, UCB-9260 150 mg/kg po bid
Description: Ab501 (in-house anti-mouse TNF antibody, […]) was administered intravenously 6 h post-LPS administration followed by three further doses administered subcutaneously at 48-h intervals. Animals were scored for signs of arthritis and weighed daily. The following scoring system was used for signs of arthritis: 0-no arthritis, 1-wrist/ankle affected, 2-wrist/ankle and pad affected and 3-wrist/ankle, pad, and digits affected. Data shown as the mean ± standard error of arthritis clinical score for the treatment group. Statistical significance (*p < 0.05, **p < 0.01) was determined using one-way ANOVA with Dunnett’s multiple comparison test.

[2] = Blood exposure of UCB-9260 in the mouse models; format: in vivo; settings: for concentration at 1 h: zymosan model
[3] = 150mg/kg, CAIA model, individual mice

Cc1ccc(C)c(Cn2c(C(O)c3ccncc3)nc3ccc(-c4cnn(C)c4)cc32)c1 (stereo not shown) [UCB-9260]
Daily arthritis score ([1]; Day 0): 0 | Daily arthritis score ([1]; Day 1): 0 | Daily arthritis score ([1]; Day 2): 0 | Daily arthritis score ([1]; Day 3, 150 mg/kg): 0 and 2 and 1 | Daily arthritis score ([1]; Day 4, 150 mg/kg): 3 and 0 and 1 and 2 | Daily arthritis score ([1]; Day 5, 150 mg/kg): 2 and 0 and 1 and 3 | Daily arthritis score ([1]; Day 6, 150 mg/kg): 1 and 0 and 2 and 3 | Daily arthritis score ([1]; Day 7, 150 mg/kg): 0 and 2 and 3 and 1 | effect on arthritis clinical score ([1]; UCB-9260 150 mg/kg po bid from 6 h after LPS): significant reduction of the clinical score | concentration at 0.5 h ([2]; 10mg/kg, human TNF neutrophilia model, individual mice, 0.5h post dose, read-out: Total exposure): 474.6 nM and 924.2 nM and 1089.9 nM | concentration at 0.5 h ([2]; 10mg/kg, human TNF neutrophilia model, individual mice, read-out: Free exposure): 26.2 nM and 11.4 nM and 22.2 nM | concentration at 0.5 h ([2]; 10mg/kg, mouse TNF neutrophilia model, individual mice, 0.5h post dose, read-out: Total exposure): 1244.4 nM and 1494.9 nM | concentration at 0.5 h ([2]; 10mg/kg, mouse TNF neutrophilia model, individual mice, read-out: Free exposure): 29.2 nM and 29.9 nM | concentration at 1 h ([2]; 10mg/kg, individual mice, read-out: free exposure 1h post dose): 2.5 nM and 2.4 nM and 0.6 nM and 1.0 nM and 1.8 nM and 4.0 nM and 2.1 nM and 2.3 nM | concentration at 1 h ([2]; 10mg/kg, individual mice, read-out: total exposure 1h post dose): 102.2 nM and 99.4 nM and 24.6 nM and 40.4 nM and 74.6 nM and 166.9 nM and 86.4 nM and 96.3 nM | concentration at 0.5 h ([2]; 30mg/kg, human TNF neutrophilia model, individual mice, 0.5h post dose, read-out: Total exposure): 10561.3 nM and 11259.5 nM and 3572.5 nM | concentration at 0.5 h ([2]; 30mg/kg, human TNF neutrophilia model, individual mice, read-out: Free exposure): 85.7 nM and 253.5 nM and 270.2 nM | concentration at 0.5 h ([2]; 30mg/kg, mouse TNF neutrophilia model, individual mice, 0.5h post dose, read-out: Total exposure): 7504.0 nM and 10604.5 nM | concentration at 0.5 h ([2]; 30mg/kg, mouse TNF neutrophilia model, individual mice, read-out: Free exposure): 239.5 nM and 180.1 nM | concentration at 1 h ([2]; 30mg/kg, individual mice, read-out: free exposure 1h post dose): 92.9 nM and 80.2 nM and 78.8 nM and 67.6 nM and 46.9 nM and 54.7 nM and 89.2 nM | concentration at 1 h ([2]; 30mg/kg, individual mice, read-out: total exposure 1h post dose): 3868.9 nM and 3340.4 nM and 3284.9 nM and 2814.8 nM and 1955.1 nM and 2278.1 nM and 3715.9 nM | concentration at 0.5 h ([2]; 100mg/kg, human TNF neutrophilia model, individual mice, 0.5h post dose, read-out: Total exposure): 23486.3 nM and 36904.4 nM | concentration at 0.5 h ([2]; 100mg/kg, human TNF neutrophilia model, individual mice, read-out: Free exposure): 698.5 nM and 563.7 nM | concentration at 0.5 h ([2]; 100mg/kg, mouse TNF neutrophilia model, individual mice, 0.5h post dose, read-out: Total exposure): 80513.8 nM and 31681.7 nM | concentration at 0.5 h ([2]; 100mg/kg, mouse TNF neutrophilia model, individual mice, read-out: Free exposure): 760.4 nM and 1932.3 nM | concentration at 1 h ([2]; 100mg/kg, individual mice, read-out: free exposure 1h post dose): 700.8 nM and 684.7 nM and 194.3 nM and 787.1 nM and 495.2 nM and 309.3 nM and 1017.0 nM and 852.7 nM | concentration at 1 h ([2]; 100mg/kg, individual mice, read-out: total exposure 1h post dose): 29201.0 nM and 28529.7 nM and 8095.9 nM and 32795.2 nM and 20631.9 nM and 12886.1 nM and 42373.7 nM and 35527.1 nM | Cave post 1st dose (free) ([2]; 150 mg/kg B.I.D., CAIA model): 307 ± 74 nM | Cave post 1st dose total ([2]; 150 mg/kg B.I.D., CAIA model): 12,808 ± 3,070 nM | Free UCB-9260, 1 hour [2, 3]: 535.0 nM and 406.9 nM and 100.9 nM and 971.5 nM and 479.3 nM | Free UCB-9260, 6 hour [2, 3]: 368.0 nM and 6.0 nM and 50.3 nM and 428.5 nM and 99.9 nM | Total UCB-9260, 1 hour [2, 3]: 22.292 µM and 16.9554 µM and 4.206 µM and 40.4784 µM and 19.9726 µM and 13.3543 µM | Total UCB-9260, 6 hour [2, 3]: 15.3347 µM and 0.2521 µM and 2.096 µM and 17.8525 µM and 4.1624 µM and 34.4762 µM | concentration at 0.5 h ([2]; 300mg/kg, human TNF neutrophilia model, individual mice, 0.5h post dose, read-out: Total exposure): 57489.1 nM and 49482.4 nM | concentration at 0.5 h ([2]; 300mg/kg, human TNF neutrophilia model, individual mice, read-out: Free exposure): 996.6 nM and 1379.7 nM | concentration at 0.5 h ([2]; 300mg/kg, mouse TNF neutrophilia model, individual mice, 0.5h post dose, read-out: Total exposure): 47166.3 nM and 48883.6 nM | concentration at 0.5 h ([2]; 300mg/kg, mouse TNF neutrophilia model, individual mice, read-out: Free exposure): 1511.9 nM and 1132.0 nM | concentration at 1 h ([2]; 300mg/kg, individual mice, read-out: free exposure 1h post dose): 551.7 nM and 816.2 nM and 450.0 nM and 187.4 nM and 584.7 nM and 1013.9 nM and 538.9 nM and 1275.4 nM | concentration at 1 h ([2]; 300mg/kg, individual mice, read-out: total exposure 1h post dose): 22987.2 nM and 34009.1 nM and 18750.9 nM and 7806.7 nM and 24360.9 nM and 42244.6 nM and 22455.4 nM and 53141.6 nM | concentration at 0.5 h ([2]; Balb/c, mouse, blood, oral, 10 mg/kg, 10 mg/kg p.o., human TNF neutrophilia model, mean n=3 ± s.e.m., read-out: Blood concentration 0.5h post dose total): 830 ± 184 nM
